Test results published in US6355428B1, “Nucleic acid ligand interaction assays” (Genelabs Technologies, Inc., priority 1998, dated 2002).

Assays:
[1] = system: CCGCGCC (GC-rich) DNA duplex (SEQ ID NO: 6); experiment: SPA (scintillation proximity) direct binding assay, G/C-rich indicator duplex
From the text: This technology can be applied to studies of ligand binding as disclosed herein. Example 13, below, describes the use of the assay in a high throughput screening method, using the SPA detection system. In this example, the first oligonucleotide is labeled with biotin, and is then tightly bound to streptavidin-coated SPA beads via the strong biotin/streptavidin interaction. These beads are impregnated with scintillant. The second oligonucleotide is labeled with a weak β-emitter, such as ^3H or ^33P. The radioactive second oligonucleotide is mixed with a solution of the beads under conditions at which the first and second oligonucleotides exist primarily as single strands, as described above. The signal will thus be low, as the oligonucleotides are non-hybridized. When ligand is added, the duplex form is stabilized, and the increased proximity of the radioactive isotope (e.g., ^3H, ^33P) in the second oligonucleotide causes the bead to which the first oligonucleotide is bound to scintillate. A signal thus indicates the presence of an effective binding ligand molecule; test sequences giving higher signals indicate the relative preference for different sequences.
The data in Table II compare raw signal counts from SPA assays using three different oligonucleotides and three concentrations (0, 100, and 500 nM) of the DNA binding drug distamycin. The oligonucleotides used were G/C-rich (CCGCGCC; SEQ ID NO: 6), A/T-rich (CTTTATTATTTT; SEQ ID NO: 2), or mixed sequence (GCGGTATTT; SEQ ID NO: 12) DNA duplexes. One strand of the duplex was synthesized with a 5′-biotin label, the other strand was labeled with ^33P, as described in Example 13.
Indicator oligonucleotides as shown in Table 1 were used in this assay, as shown in Table II and FIGS. 4A-E. One strand of each duplex was labeled with biotin at the 5′-end, and the complementary strand was 3′-labeled with ^33P. […] In the absence of ligand, and under these conditions, the oligonucleotides exist in single-stranded conformation. As a result, the oligonucleotide containing the radioactive label is not in close proximity to the SPA bead, and the light given off by the beads is low, i.e., at background. As a duplex-stabilizing ligand is added, the radioactive ^33P is brought into close proximity to the SPA bead, and the light emitted from the SPA bead increases. Accordingly, each of five known DNA-binding compounds was added in increasing concentrations, and the effect on scintillation count was observed, giving the results shown in FIGS. 4A-E.

[2] = system: 5′-GCGGTATTT-3′ (SEQ ID NO: 12) F/Q indicator pair; experiment: Fluorescence quenching direct binding assay, mixed DNA; details: increasing netropsin; tRNA added; room temperature
Protocol: (§1) The specific examples described in this section employ fluorescence quenching as the detection system. In these examples, because conditions are adjusted to maintain the oligonucleotides in single-stranded form in the absence of the ligand, the assay starts with the system at a high or maximum level of fluorescence, and fluorescence generally decreases, depending on binding affinity, as the ligand is added.
(§2) In the Figure legends, RNA oligonucleotides are denoted by an “r” at the beginning of the sequence, and single stranded controls by “ss” at the end of the sequence. These single stranded sequence, are used alone in control experiments, which thus employ only an “F” strand and no complementary quenching strand. Any quenching of fluorescence that is not due to hybridization can thus be acounted for. Maximum quenching expected on complete hybridization of these oligonucleotides is 85-90%; therefore some signal remains after complete hybridization. […]
(§3) According to the general method described above, increasing amounts of netropsin or actinomycin, respectively, were added to mixtures of selected F/Q indicator oligonucleotide pairs, whose sequences are shown in the legends of FIGS. 1 and 3. […] The Figures show the level of fluorescence observed, relative to a control having no added drug, for each indicator pair (or single strand) as the level of added drug was increased. […]

[3] = system: G/C rich sequence 5′-CGCGCC-3′ (SEQ ID NO: 7) F/Q indicator pair; experiment: Fluorescence quenching direct binding assay, G/C rich DNA; details: change in fluorescence similar to single-stranded controls
Protocol: as §1, §2, §3

Row | Compound | CPM ([1]; 100 nM Distamycin, 10 mM Na+) | CPM ([1]; 100 nM Distamycin, 50 mM Na+) | CPM ([1]; 500 nM Distamycin, 10 mM Na+) | CPM ([1]; 500 nM Distamycin, 50 mM Na+) | binding (decrease in fluorescence, FIG. 3A) [2] | binding (decrease in fluorescence, FIG. 3A) [3]
1 | Cn1cc(NC(=O)c2cc(NC(=O)c3cc(NC=O)cn3C)cn2C)cc1C(=O)NCCC(=N)N [Distamycin, distamycin] | 699 CPM | 889 CPM | 744 CPM | 666 CPM | – | –
2 | Cn1cc(NC(=O)c2cc(NC(=O)CN=C(N)N)cn2C)cc1C(=O)NCCC(=N)N [Netropsin, netropsin] | – | – | – | – | binds well | does not bind well
